Where two headings read alike, the source gives them in different places.
Legend:
[1] = tested on: photochemical system II; assay: Photosynthesis activity (Fv/Fm) of Arabidopsis; format: in vivo, Arabidopsis thaliana; details: gaseous state 25 nmol/cm^3, 120 min, 25° C., light 100 μmol/m^2·s, dark adaptation 5 min
Experimental: The photosynthesis activity was measured using the maximum quantum yield (Fv/Fm) of photochemical system II as an index. Test plant object was subjected to dark adaptation (for 5 min), and Fv/Fm was measured using photosynthesis measuring apparatus Junior-PAM (Walz). The measurement was performed at least three times for different sites of the leaf and the averaged numerical value was taken as photosynthesis activity.
Arabidopsis (Arabidopsis thaliana, Columbia-0) was exposed to the compound shown in Table 4 in a gaseous, state (concentration 25 nmol/cm^3) for 120 min (temperature 25° C.) in the presence of light (100 μmol/m^2·s), subjected to a dark adaptation treatment for 5 min, and photosynthesis activity (Fv/Fm) was measured.
(§1) Arabidopsis was seeded in artificial soil material “Jiffy-7” (SAKATA SEED CORPORATION), cultured for 14 hr in light period/10 hr in dark period at 23° C. for 2-3 weeks and used.

[2] = tested on: HSFA2 gene; assay: Expression level of HSFA2 gene in Arabidopsis (qPCR); format: in vivo, Arabidopsis thaliana; details: for fold induction at 10 nmol/cm3: Arabidopsis thaliana, 0.5 h, read-out: relative transcription level (fold), HSFA2 gene
Source text: (§2) Total RNA was extracted using RNeasy Plant Mini Kit (Quiagen), and cDNA was successively synthesized using RevaTra Ace Kit (TOYOBO CO., LTD.).
(§3) HSFA2 gene and DREB2A gene were quantified using SYBR Green qPCR Mix (TOYOBO CO., LTD.), LineGene Real-time PCR detection system (BioFlux).
(§4) The primers used for each gene expression analysis are as described below.
Arabidopsis (Arabidopsis thaliana, Columbia-0) was exposed to the compound shown in Table 2 in a gaseous state (concentration 10 nmol/cm^3) for 30 min (temperature 23° C.), and the expression level of HSFA2 gene was analyzed.
as §1

[3] = tested on: HSFA2 gene; assay: Expression level of HSFA2 gene in rice (qPCR); format: in vivo, Oryza sativa; details: rice (Nipponbare), gaseous state 10 nmol/cm^3, 30 min, 25° C.; non-exposure as 1
Experimental: as §2, §3, §4
(§5) Rice (Oryza sativa, Nipponbare) was exposed to (E)-2-hexenal in a gaseous state (concentration 10 nmol/cm^3) for 30 min (temperature 25° C.), and the expression level of HSFA2 gene and DREB2A gene was analyzed. As a result, the expression level of HSFA2 gene was 3.55-fold (relative transcription level with non-exposure to (E)-2-hexenal as 1), and the expression level of DREB2A was 3.93-fold (relative transcription level with non-exposure to (E)-2-hexenal as 1).
(§6) The rice was seeded in artificial soil material “Jiffy-7” (SAKATA SEED CORPORATION), cultured for 14 hr in light period/10 hr in dark period at 23° C. for 2-3 weeks and used.

[4] = tested on: DREB2A gene; assay: Expression level of DREB2A gene in rice (qPCR); format: in vivo, Oryza sativa; details: rice (Nipponbare), gaseous state 10 nmol/cm^3, 30 min, 25° C.; non-exposure as 1
Experimental: as §2, §3, §4, §5, §6

[5] = tested on: Arabidopsis (Arabidopsis thaliana, Columbia-0); assay: Survival rate of Arabidopsis after high temperature treatment; format: in vivo; details: gaseous state 10 nmol/cm^3 for 120 min, then 120 min at 40-45° C. in light; relative to non-exposure sample as 100(%)
Experimental: Arabidopsis (Arabidopsis thaliana, Columbia-0) was exposed to the compound shown in Table 3 in a gaseous state (concentration 10 nmol/cm^3) for 120 min, left standing for 120 min in an environmental control chamber (manufactured by NIPPON MEDICAL & CHEMICAL INSTRUMENTS CO., LTD.) set to 40-45° C. and in the presence of light (100 μmol/m^2·s), and the survival rate after lapse of 3 days was measured.
as §1
In Table 3, the survival rate is a relative value with the survival rate of a non-exposure sample (sample left standing at 45° C. for 120 min without exposure to the compound) as 100(%).

[6] = tested on: HSP17.6-A; assay: Expression level of HSP gene HSP17.6-A in Arabidopsis (microarray); format: in vivo, Arabidopsis thaliana; details: gaseous state 10 nmol/cm^3, 30 min, 23° C., non-exposure as 1
Experimental: (§7) HSP gene was quantified by microarray analysis. The total RNA was extracted using RNeasy Plant Mini Kit (Quiagen), and double stranded cDNA was synthesized using Superscript Choice System (Life Technologies). cDNA was labeled with Cy3 by using NimbleGen One-color Labeling Kit (NimbleGen), and hybridized to DNA array (ATH6_60 mer_expr X4, NmibleGen) at 42° C. for 6 hr. DNA array was washed, Cy3 fluorescence intensity was measured by Axon GenePix 4000B scanner (NimbleGen) and quantified.
(§8) Arabidopsis (Arabidopsis thaliana, Columbia-0) was exposed to (E)-2-hexenal in a gaseous state (concentration 10 nmol/cm^3) for 30 min (temperature 23° C.), and the expression level of HSP genes (HSP17.6-C, HSP17.6-A) was analyzed.
as §1

[7] = tested on: HSP17.6-C; assay: Expression level of HSP gene HSP17.6-C in Arabidopsis (microarray); format: in vivo, Arabidopsis thaliana; details: gaseous state 10 nmol/cm^3, 30 min, 23° C., non-exposure as 1
Experimental: as §7, §8, §1

[8] = tested on: HSFA2 gene; assay: Expression level of HSFA2 gene in tomato (qPCR); format: in vivo, Solanum lycopersicum; details: tomato (Microtom), gaseous state 10 nmol/cm^3, 30 min, 25° C.; non-exposure as 1
Experimental: as §2, §3, §4
Tomato (Solanum lycopersicum, Microtom) was exposed to (E)-2-hexenal in a gaseous state (concentration 10 nmol/cm^3) for 30 min (temperature 25° C.), and the expression level of HSFA2 gene was analyzed to find 20.2-fold (relative transcription level with non-exposure to (E)-2-hexenal as 1).
The tomato was seeded in artificial soil material “Jiffy-7” (SAKATA SEED CORPORATION), cultured for 14 hr in light period/10 hr in dark period at 23° C. for 2-3 weeks and used.

[9] = Arabidopsis, gaseous state 10 nmol/cm^3, 30 min, 23° C., relative to acetonitrile as 1

Row | photosynthesis activity (Fv/Fm) [1] | Compound | fold induction at 10 nmol/cm3 [2, 9] | further results
1 | 0.748 | CCCC/C=C/C=O [(E)-2-heptenal] | 642 | –
2 | 0.743 | CC/C=C\CCC=O [(Z)-4-heptenal] | 320 | –
3 | – | CCC/C=C/CO [(E)-2-hexenol, reference compound] | 0.735 | –
4 | 0.753 | CCCCCCC/C=C/C=O [(E)-2-decenal] | – | –
5 | 0.741 | CCCCCC/C=C/C=O [(E)-2-nonenal] | 488 | –
6 | – | n-hexenal [reference compound] | – | relative transcription level (fold), HSFA2 gene [2, 9]: 7.9 fold
7 | 0.732 | CCCCC/C=C/C=O [(E)-2-octenal] | 777 | –
8 | – | CCCCCC(C)=O [2-heptanone, reference compound] | 1.1 | –
9 | – | CCC/C=C/C(C)=O [(E)-3-hepten-2-one] | 266 | survival rate (%) after 3 days [5]: 159%
10 | 0.745 | CC/C=C\CCCCC=O [(Z)-6-nonenal] | 270 | –
11 | 0.710 | CC/C=C/C=O [(E)-2-pentenal] | 470 | –

Row | Compound | photosynthesis activity (Fv/Fm) [1] | fold induction at 10 nmol/cm3 [2, 9] | further results
12 | CC#N [acetonitrile, reference compound] | 0.729 | – | fold induction at 10 nmol/cm3 [2]: 1
13 | CCC/C=C/C=O [(E)-2-hexenal] | 0.739 | – | relative transcription level, HSFA2 gene [3]: 3.55 fold; relative transcription level, DREB2A gene [4]: 3.93 fold; fold induction at 10 nmol/cm3 [2]: 377; survival rate (%) after 3 days [5]: 170%; Relative transcription level (fold) HSP17.6-A [6]: 36.3 fold; Relative transcription level (fold) HSP17.6-C [7]: 45.9 fold; relative transcription level, HSFA2 gene [8]: 20.2 fold
14 | C=CC=O [2-propenal, reference compound] | 0.393 | – | –
15 | C/C=C/C=O [(E)-2-butenal] | 0.726 | – | relative transcription level (fold), HSFA2 gene [2, 9]: 469 fold; survival rate (%) after 3 days [5]: 140%

Source: patent publication US10874101B2, “Tolerance improving agent for plants” (PHYTOCHROME INC., priority 2014, dated 2020)
